Assay results reported in US20230102924A1, “Methods of Treating Cancer Using Checkpoint Inhibitors in Combination with Purine Cleaving Enzymes” (priority 2020, published 2023).
Entries after “also recorded” stand apart in the source; their conditions may differ.

What was measured:
[1] = system: EMT-6 tumors that express E. coli PNP; assay: EMT-6 murine breast tumors expressing E. coli PNP (left flank) in mice, fludarabine phosphate plus or minus anti-CTLA4-9H10; assay type: in vivo, female BALB/c mice
Experimental: (§1) In order to evaluate efficacy, the parental EMT-6-EMU cell line and the EMT-6-PNP-EMU transduced cell line were evaluated. The EMT-6-PNP-EMU transduced cell line and the parental EMT-6-EMU cell line were implanted as shown below in each flank with or without dosing with fludarabine phosphate and/or anti-CTLA-4 antibody using female BALB/c mice.
(§2) Mice were implanted with EMT-6 murine tumors on both the right and left flanks. In groups 1 through 6 the right flanks were implanted with parental (non-PNP) tumors and the left flanks were implanted with tumors expressing E. coli PNP. In groups 7 through 10, both the right and left flanks were injected with parental tumors.

[2] = system: EMT-6 tumors that do not express E. coli PNP; assay: Parental EMT-6 murine breast tumors (non-PNP) in mice, fludarabine phosphate plus or minus anti-CTLA4-9H10; assay type: in vivo, female BALB/c mice; details: for abscopal effect on a non-PNP tumor of a contralateral PNP tumor regressing due to F-araAMP: F-araAMP 90 mg/kg with anti-CTLA4-9H10
Experimental: as §1, §2

[3] = FIG. 3 and 5, day 15, right flank non-PNP tumors, PNP tumor contralaterally

Nc1nc(F)nc2c1ncn2[C@@H]1O[C@H](COP(=O)(O)O)[C@@H](O)[C@@H]1O [fludarabine phosphate, 2-fluoro-9-(5-O-phosphono-β-D-arabinofuranosyl)-9H-purin-6-amine]
effect on EMT-6 breast tumors that express E. coli PNP ([1]; FIG. 1, groups 1, 2, 4, 5, F-araAMP 75 mg/kg plus or minus anti-CTLA4-9H10, left flank tumors): effective | effect on EMT-6 tumors that express E. coli PNP ([1]; FIG. 2, groups 1, 3, 4, 6, F-araAMP 90 mg/kg plus or minus anti-CTLA4-9H10, left flank tumors): effective | PNP/fludarabine phosphate treatment in combination with an anti-CTLA4 antibody ([1]; summary of FIG. 1, 2, 3): improve | tumor growth, group 4 (anti-CTLA4 alone) versus group 6 (fludarabine 90 mg/kg + anti-CTLA4), all tumors included in the analysis [2, 3]: not significantly different | tumor growth, group 4 (anti-CTLA4 alone) versus group 6 (fludarabine 90 mg/kg + anti-CTLA4), regressed tumors removed from the analysis [2, 3]: significantly different | augmentation of anti-CTLA4 antibody antitumor activity in non-PNP tumors ([2]; FIG. 3 and 5, groups 1, 3, 4, 6, F-araAMP 90 mg/kg, PNP tumor regressing contralaterally): augments | augmentation of anti-CTLA4 antibody activity in parental (non-PNP) tumors ([2]; FIG. 4 and 6, groups 7-10, F-araAMP 90 mg/kg, no PNP expression in the animal): augments; also recorded: enhances | abscopal effect on a non-PNP tumor of a contralateral PNP tumor regressing due to F-araAMP ([2]; FIG. 7): strong abscopal effect; also recorded: inhibits | abscopal effect on a non-PNP tumor of a contralateral PNP tumor regressing due to F-araAMP ([2]; FIG. 7, listed as F-araAMP): abscopal effect

B1: E. coli PNP: E. coli purine nucleoside phosphorylase expressed in the EMT-6-PNP-EMU transduced tumor cell line (protein, UniProt P0ABP8 2-239, looked up)
Purine nucleoside …: ATPHINAEMGDFADVVLMPGDPLRAKYIAETFLEDAREVNNVRGMLGFTGTYKGRKISVMGHGMGIPSCSIYTKELITDFGVKKIIRVGSCGAVLPHVKLRDVVIGMGACTDSKVNRIRFKDHDFAAIADFDMVRNAVDAAKALGIDARVGNLFSADLFYSPDGEMFDVMEKYGILGVEMEAAGIYGVAAEFGAKALTICTVSDHIRTHEQTTAAERQTTFNDMIKIALESVLLGDKE
effect of expressing E. coli PNP in a solid breast tumor on activity of checkpoint blockade inhibitors ([1]; summary of experiments): augments | tumor growth, group 6 (non-PNP right flank tumor, PNP tumor contralaterally) versus group 10 (right) or group 10 (left) ([2]; FIG. 7, day 15, both groups F-araAMP 90 mg/kg + anti-CTLA4-9H10): significantly different
